Structures are written as SMILES.

The target in series [1] is T1, UDP-glucuronosyltransferase 1A10 (Homo sapiens, UniProt Q9HAW8).
T1 sequence (Q9HAW8 whole entry): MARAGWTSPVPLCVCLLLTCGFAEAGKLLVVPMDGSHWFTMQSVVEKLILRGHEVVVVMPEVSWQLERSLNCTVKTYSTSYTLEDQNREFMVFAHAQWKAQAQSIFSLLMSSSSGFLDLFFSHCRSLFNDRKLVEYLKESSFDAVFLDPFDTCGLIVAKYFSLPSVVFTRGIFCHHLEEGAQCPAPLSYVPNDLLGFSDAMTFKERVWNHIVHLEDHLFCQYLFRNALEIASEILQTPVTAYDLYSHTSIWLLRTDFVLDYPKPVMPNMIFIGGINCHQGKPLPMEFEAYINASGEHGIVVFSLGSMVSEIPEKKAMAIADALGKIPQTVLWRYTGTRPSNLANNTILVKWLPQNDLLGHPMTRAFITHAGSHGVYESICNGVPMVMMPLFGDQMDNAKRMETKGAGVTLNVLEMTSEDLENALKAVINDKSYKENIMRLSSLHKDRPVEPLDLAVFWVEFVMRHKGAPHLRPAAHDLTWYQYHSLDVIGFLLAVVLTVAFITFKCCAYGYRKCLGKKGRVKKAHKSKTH
The series is described as follows: Drug metabolism assessed as human recombinant UGT1A10-mediated irilone-O-4'-monoglucuronide formation incubated for 5 mins prior to UDPGA addition measured after 90 mins by HPLC-DAD analysis. The note with it: recombinant enzyme, 1.5 h. The class given is ADME.

Series [2] deals with T2, UDP-glucuronosyltransferase 1A7 (Homo sapiens, UniProt Q9HAW7).
T2 sequence (Q9HAW7 whole entry): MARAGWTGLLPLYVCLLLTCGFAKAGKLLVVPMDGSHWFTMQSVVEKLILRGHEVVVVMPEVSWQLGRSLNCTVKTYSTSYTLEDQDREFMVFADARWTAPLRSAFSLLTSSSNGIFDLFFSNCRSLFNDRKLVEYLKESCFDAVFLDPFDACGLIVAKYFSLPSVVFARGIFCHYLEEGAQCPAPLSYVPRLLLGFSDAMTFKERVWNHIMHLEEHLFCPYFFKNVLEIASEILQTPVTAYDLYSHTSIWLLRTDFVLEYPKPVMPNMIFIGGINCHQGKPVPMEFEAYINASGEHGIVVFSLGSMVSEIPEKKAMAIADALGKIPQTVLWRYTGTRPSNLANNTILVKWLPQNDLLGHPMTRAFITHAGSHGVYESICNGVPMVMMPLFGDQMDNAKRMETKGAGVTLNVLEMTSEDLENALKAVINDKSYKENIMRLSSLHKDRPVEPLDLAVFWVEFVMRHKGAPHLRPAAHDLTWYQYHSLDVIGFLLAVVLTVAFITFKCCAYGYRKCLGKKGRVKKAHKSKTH
Kind of series: Activity of human recombinant UGT1A7 assessed as intrinsic clearance incubated for 5 mins prior to UDPGA addition measured after 90 mins. The class given is ADME. The note with it: recombinant enzyme, 1.5 h.

Take `O=c1c(-c2ccc(O)cc2)coc2cc3c(c(O)c12)OCO3`: the Drug metabolism result in series [1] was “metabolite_detected”. Besides, in series [2], the CL was 3900 µL/min/mg.

Source of the values: ChEMBL document CHEMBL3525955, “Glucuronidation of the red clover isoflavone irilone by liver microsomes from different species and human UDP-glucuronosyltransferases” (Drug Metab Dispos, 2011).
